Data published in publication PMC3646888 (PLoS ONE, 2013).
“Also recorded” adds a separate entry of the source.

Key:
CYP2C6 = molecular target: T1, CYP2C6 (Rattus norvegicus, UniProt P05178); assay: Fluorescence-based CYP assay, recombinant CYP2C6, substrate EFC; assay type: in vitro ADME
T1 sequence (P05178 1-490): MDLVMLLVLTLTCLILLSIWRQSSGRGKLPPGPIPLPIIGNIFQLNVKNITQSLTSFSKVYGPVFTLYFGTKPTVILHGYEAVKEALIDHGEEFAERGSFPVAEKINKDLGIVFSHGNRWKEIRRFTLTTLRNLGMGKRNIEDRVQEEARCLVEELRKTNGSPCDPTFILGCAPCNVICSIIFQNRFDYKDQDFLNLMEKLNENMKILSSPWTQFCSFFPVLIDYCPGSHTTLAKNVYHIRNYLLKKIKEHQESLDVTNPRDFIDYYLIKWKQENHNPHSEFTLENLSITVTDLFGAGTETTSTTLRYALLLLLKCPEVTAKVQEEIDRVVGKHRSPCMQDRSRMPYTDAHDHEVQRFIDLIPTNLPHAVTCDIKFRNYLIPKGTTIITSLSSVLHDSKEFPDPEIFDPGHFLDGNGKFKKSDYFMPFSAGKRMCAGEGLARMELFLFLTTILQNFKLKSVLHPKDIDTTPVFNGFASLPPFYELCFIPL
Procedure: (§1) These assays were performed by methods similar to those described by VanAlstine and Hough, Stresser et al., Wulff et al., Henderson et al., and Crespi et al., with minor modifications. All incubations were performed in a final volume of 200 µL of 50 mM potassium phosphate buffer at pH 7.4 containing 1% acetonitrile. CYP inhibitor studies were performed according to the parameters of Table 1. Substrate concentrations were chosen to be near known Km values. As described in the references cited, two different NADPH regenerating systems were used depending on the substrates used (Table 1). Inhibitors were added to either “low” NADPH-regenerating system (final concentration of 8.1 µM NADP^+, 0.4 mM glucose-6-phosphate, 0.4 mM magnesium chloride, 0.2 U/mL glucose-6-phosphate dehydrogenase) or to “high” NADPH-regenerating system (final concentration of 1.3 mM NADP^+, 3.3 mM glucose-6-phosphate, 3.3 mM magnesium chloride, 0.4 U/mL glucose-6-phosphate dehydrogenase) in a total of 0.1 mL buffer. […] For assays utilizing “low” regenerating systems, product formation was monitored continuously by a Victor3 1420 Multilabel Plate Counter at the designated wavelengths (Table 1). […] Product formation was then measured at the designated wavelengths (Table 1). […]

CYP2B6 = molecular target: T2, CYP2B6 (Homo sapiens, UniProt P20813); assay: Fluorescence-based CYP assay, recombinant CYP2B6, substrate EFC; assay type: in vitro ADME
T2 sequence (P20813 1-491): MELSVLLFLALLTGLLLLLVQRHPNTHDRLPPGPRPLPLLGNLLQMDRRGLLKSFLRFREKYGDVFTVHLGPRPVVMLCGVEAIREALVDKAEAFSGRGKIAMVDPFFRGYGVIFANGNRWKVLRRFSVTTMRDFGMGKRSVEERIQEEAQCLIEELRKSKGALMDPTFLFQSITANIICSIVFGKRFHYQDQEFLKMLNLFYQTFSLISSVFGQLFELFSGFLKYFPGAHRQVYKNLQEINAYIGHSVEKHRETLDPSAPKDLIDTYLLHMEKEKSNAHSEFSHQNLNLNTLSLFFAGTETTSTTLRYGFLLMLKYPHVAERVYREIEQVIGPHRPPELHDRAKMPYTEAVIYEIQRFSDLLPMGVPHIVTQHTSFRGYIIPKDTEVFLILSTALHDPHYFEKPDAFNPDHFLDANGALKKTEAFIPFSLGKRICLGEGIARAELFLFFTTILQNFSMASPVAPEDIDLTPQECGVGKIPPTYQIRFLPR
Procedure: as §1

CYP1A2h = molecular target: T3, CYP1A2h (Homo sapiens, UniProt P05177); assay: Fluorescence-based CYP assay, recombinant CYP1A2h, substrate CEC; assay type: in vitro ADME
T3 sequence (P05177 1-516): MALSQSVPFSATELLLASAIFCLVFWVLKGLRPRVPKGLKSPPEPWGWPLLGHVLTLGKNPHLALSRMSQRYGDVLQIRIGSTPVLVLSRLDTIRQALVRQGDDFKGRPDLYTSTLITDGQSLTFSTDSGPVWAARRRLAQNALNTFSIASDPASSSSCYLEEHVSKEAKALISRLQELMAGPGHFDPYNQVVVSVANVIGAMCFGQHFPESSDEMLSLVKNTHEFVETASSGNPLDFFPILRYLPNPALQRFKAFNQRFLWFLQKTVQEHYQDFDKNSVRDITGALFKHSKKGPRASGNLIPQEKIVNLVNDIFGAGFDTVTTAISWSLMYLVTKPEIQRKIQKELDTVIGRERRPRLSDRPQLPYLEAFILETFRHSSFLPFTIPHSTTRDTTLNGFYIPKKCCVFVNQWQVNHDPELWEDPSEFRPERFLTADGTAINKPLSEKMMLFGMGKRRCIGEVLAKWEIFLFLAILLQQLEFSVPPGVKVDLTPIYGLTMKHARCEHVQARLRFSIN
Procedure: (§2) These assays were performed by methods similar to those described by VanAlstine and Hough, Stresser et al., Wulff et al., Henderson et al., and Crespi et al., with minor modifications. All incubations were performed in a final volume of 200 µL of 50 mM potassium phosphate buffer at pH 7.4 containing 1% acetonitrile. CYP inhibitor studies were performed according to the parameters of Table 1. Substrate concentrations were chosen to be near known Km values. As described in the references cited, two different NADPH regenerating systems were used depending on the substrates used (Table 1). […] Samples were pre-incubated at 37°C for the designated times, and the reactions were initiated with the addition of a substrate and enzyme mixtures (Table 1). […] For the assays utilizing the “high” regenerating system, enzyme reactions were terminated at the designated time by the addition of 75 µL of 2N NaOH, followed by a 2 h post-incubation at 37°C. Product formation was then measured at the designated wavelengths (Table 1). For the “low” regenerating system assays, blanks and standards were prepared in 0.1 mL buffer without the regenerating system. For the “high” regenerating system assays, blanks and standards containing 0.1 mL of buffer received 75 µL of 2N NaOH following pre-incubation.

CYP3A4 [1] = molecular target: T4, CYP3A4 (Homo sapiens, UniProt P08684); set-up: method as in PMID 10884437; details: 10 µM; cited from earlier work
CYP3A4 [2] = molecular target: T4, CYP3A4; assay: Fluorescence-based CYP3A4 assay with BFC as substrate; assay type: in vitro ADME
Procedure: as §2

T4 sequence (P08684 whole entry): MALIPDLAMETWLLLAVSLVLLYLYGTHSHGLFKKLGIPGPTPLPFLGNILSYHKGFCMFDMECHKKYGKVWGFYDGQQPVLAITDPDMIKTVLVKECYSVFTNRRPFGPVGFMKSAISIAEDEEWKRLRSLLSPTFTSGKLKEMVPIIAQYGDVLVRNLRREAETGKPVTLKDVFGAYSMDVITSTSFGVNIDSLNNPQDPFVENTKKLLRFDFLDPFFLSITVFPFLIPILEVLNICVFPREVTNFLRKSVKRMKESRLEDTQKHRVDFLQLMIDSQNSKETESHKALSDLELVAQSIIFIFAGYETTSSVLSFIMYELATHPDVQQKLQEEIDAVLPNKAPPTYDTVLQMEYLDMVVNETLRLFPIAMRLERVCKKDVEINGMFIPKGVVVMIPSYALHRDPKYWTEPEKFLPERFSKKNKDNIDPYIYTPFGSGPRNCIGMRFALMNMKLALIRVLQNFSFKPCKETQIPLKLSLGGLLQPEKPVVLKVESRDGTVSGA

Structure (SMILES) | Inhibition of CYP2C6 (in words) (CYP2C6; positive control) | Inhibition of CYP2B6 (in words) (CYP2B6; positive control) | IC50 (CYP2C6; recombinant rat CYP2C6, EFC 5 µM) | IC50 (CYP1A2h) | Inhibition of CYP1A2h (in words) (CYP1A2h; up to 80 µM) | Inhibition of CYP3A4 with BFC as substrate (in words) (CYP3A4 [1]) | IC50 (CYP2B6) | Effect on CYP3A4 activity with BFC (in words) (CYP3A4 [2]; substrate BFC) | Magnitude of stimulation of CYP3A4 with BFC (CYP3A4 [2]; substrate BFC 50 µM, maximum stimulation)
Clc1ccccc1C(c1ccccc1)(c1ccccc1)n1ccnc1 [Clotrimazole] | potent inhibitor | potent inhibitor |  |  |  |  |  |  | 
Clc1ccccc1C(c1ccccc1)(c1ccccc1)n1cccn1 [TRAM-34, 1-[(2-chlorophenyl)diphenylmethyl]-1H-pyrazole] |  |  | 2900 nM | > 80 µM | little to no inhibition; also recorded: no inhibitory effects | did not inhibit | 900 nM | concentration-dependent stimulation | ~200%
